A short description of series [1]: Antioxidant activity assessed as DPPH free radical scavenging activity by UV-visible spectrophotometric analysis. The series is classed as physicochemical.
The nature of series [2]: Antioxidant activity assessed as H2O2 scavenging activity. The series is classed as physicochemical.
Series [3] in a line: Antiinflammatory activity assessed as inhibition of albumin denaturation after 15 mins by BSA assay. The series is classed as functional.
Series [4] has as its system Escherichia coli. Put plainly: Antibacterial activity against Escherichia coli ATCC 25922 at 10 ug after 24 hrs by well diffusion method. The series is classed as functional, organism-based. Background: Agar diffusion results depend on both activity and mobility in agar.
In series [5] the test system is Staphylococcus aureus. The experiment in a line: Antibacterial activity against Staphylococcus aureus ATCC 25923 at 50 ug after 24 hrs by well diffusion method. The series is classed as functional, organism-based.
Series [6] concerns Staphylococcus aureus. Put plainly: Antibacterial activity against Staphylococcus aureus ATCC 25923 at 10 ug after 24 hrs by well diffusion method. The series is classed as functional, organism-based.
Series [7] has as its system Escherichia coli. Put plainly: Antibacterial activity against Escherichia coli ATCC 25922 at 50 ug after 24 hrs by well diffusion method. The series is classed as functional, organism-based.
The next series concerns Pseudomonas aeruginosa. The experiment in a line: Antibacterial activity against Pseudomonas aeruginosa ATCC 27853 at 50 ug after 24 hrs by well diffusion method. The series is classed as functional. The note with it: for zone of inhibition at 50 µg/disc: ATCC 27853, 24 h, read-out: IZ.
Another series deals with Klebsiella pneumoniae. The experiment in a line: Antibacterial activity against Klebsiella pneumoniae ATCC 13883 at 50 ug after 24 hrs by well diffusion method. The series is classed as functional, organism-based.

Our source for the IC50, Activity and zone of inhibition values is ChEMBL document CHEMBL3779854, “Biological evaluation and molecular docking studies of new curcuminoid derivatives: Synthesis and characterization” (Bioorg Med Chem Lett, 2016).

In brackets after ≈: the same amount, converted by molar mass. Activity calls are given as the source filed them. The rule behind the calls is not given here.

Regarding `CN(C)c1ccc(/C=C/C(=O)/C(CNc2ccccc2)=C(O)/C=C/c2ccc(N(C)C)cc2)cc1`, the IC50 (commonly the midpoint of a concentration-inhibition curve) in series [1] was determined as 79.06 µg/mL (≈ 169 µM); in series [2], 52.13 µg/mL (≈ 111 µM); in [3], 808.36 µg/mL (≈ 1730 µM). Also, the outcome in the series with Escherichia coli [4], with Staphylococcus aureus [5] and in the series on Staphylococcus aureus [6] was Active.

Regarding `COc1cc(/C=C/C(=O)CC(=O)/C=C/c2ccc(O)c(OC)c2)ccc1O` [CURCUMIN], the IC50 was 52.51 µg/mL (≈ 143 µM) in series [1], 52.24 µg/mL (≈ 142 µM) in series [2] and 129.85 µg/mL (≈ 352 µM) in series [3]. Further, the result in the series with Escherichia coli [7], in the series on Escherichia coli [4], in the series with Staphylococcus aureus [5], with Staphylococcus aureus [6] and with Klebsiella pneumoniae was Active. Besides, the zone of inhibition at 50 µg/disc in the series with Pseudomonas aeruginosa came out at 11 mm.

Turning to `CN(C)c1ccc(/C=C/C(=O)/C=C(O)/C=C/c2ccc(N(C)C)cc2)cc1`, the IC50 in series [1] is 78.52 µg/mL (≈ 217 µM); in [2], 74.56 µg/mL (≈ 206 µM); in [3], 180.38 µg/mL (≈ 498 µM).

For `CN(C)c1ccc(/C=C/C(=O)/C(CNc2cccc(C(F)(F)F)c2)=C(O)/C=C/c2ccc(N(C)C)cc2)cc1`, the IC50 in [1] came to 81.69 µg/mL (≈ 153 µM); in [2], 74.6 µg/mL (≈ 139 µM); in series [3], 186.05 µg/mL (≈ 347 µM). The outcome with Escherichia coli [4] and in the series on Staphylococcus aureus [6] was inactive.

For `CN(C)c1ccc(/C=C/c2cc(/C=C/c3ccc(N(C)C)cc3)n(-c3ccccc3)n2)cc1`, the IC50 in series [1] worked out at 74.03 µg/mL (≈ 170 µM); in [2], 72.42 µg/mL (≈ 167 µM); in [3], 29.44 µg/mL (≈ 67.7 µM). Besides, the result with Escherichia coli [7], with Escherichia coli [4], with Staphylococcus aureus [5] and with Staphylococcus aureus [6] was Active.

`O=C1O[C@H]([C@@H](O)CO)C(O)=C1O` [ASCORBIC ACID]: the figures for the IC50 in series [1] and in [2] were 65.53 µg/mL (≈ 372 µM) and 68.82 µg/mL (≈ 391 µM), respectively.

`CN(C)c1ccc(/C=C/c2cc(/C=C/c3ccc(N(C)C)cc3)n(-c3ccc(F)cc3)n2)cc1`: the IC50 stood at 74.38 µg/mL (≈ 164 µM) in series [1], 89.05 µg/mL (≈ 197 µM) in [2] and 216.32 µg/mL (≈ 478 µM) in series [3]. The outcome in the series on Escherichia coli [7], with Escherichia coli [4], in the series with Staphylococcus aureus [5] and in the series with Klebsiella pneumoniae was Active.

Turning to `CN(C)c1ccc(/C=C/C(=O)/C(CNc2ccc(F)cc2)=C(O)/C=C/c2ccc(N(C)C)cc2)cc1`, the IC50 in series [1] was 48.16 µg/mL (≈ 99.2 µM); in series [2] it was 46.9 µg/mL (≈ 96.6 µM); in series [3], 226.71 µg/mL (≈ 467 µM). In addition, the outcome with Escherichia coli [7], in the series with Escherichia coli [4] and in the series on Klebsiella pneumoniae was Active. For the same molecule, in the series with Pseudomonas aeruginosa, the zone of inhibition at 50 µg/disc worked out at 12 mm. Besides, the result with Staphylococcus aureus [6] was inactive.

Turning to `COc1cc(C=C(C(=O)/C=C/c2ccc(N(C)C)cc2)C(=O)/C=C/c2ccc(N(C)C)cc2)ccc1O`, the IC50 in [1] was 75.37 µg/mL (≈ 152 µM); in [2] it was 44.95 µg/mL (≈ 90.5 µM); in series [3], 106.16 µg/mL (≈ 214 µM). Further, the result in the series with Escherichia coli [7], in the series with Escherichia coli [4] and in the series on Pseudomonas aeruginosa was Active.

As to `COc1ccccc1NC/C(C(=O)/C=C/c1ccc(N(C)C)cc1)=C(O)\C=C\c1ccc(N(C)C)cc1`, the values for the IC50 in [1], in [2] and in series [3] were 76.28 µg/mL (≈ 153 µM), 53.94 µg/mL (≈ 108 µM) and 81.36 µg/mL (≈ 163 µM), respectively. For the same molecule, the result in the series with Escherichia coli [4] and in the series with Staphylococcus aureus [5] was Active.

Turning to `CN(C)c1ccc(/C=C/c2cc(/C=C/c3ccc(N(C)C)cc3)[nH]n2)cc1`, the IC50 is 46.05 µg/mL (≈ 128 µM) in [1], 50.78 µg/mL (≈ 142 µM) in [2] and 51.79 µg/mL (≈ 144 µM) in [3]. Further, the result with Escherichia coli [4], in the series with Pseudomonas aeruginosa and in the series on Klebsiella pneumoniae was Active. The outcome in the series with Staphylococcus aureus [6] was inactive.

Regarding `COc1ccc(-n2nc(/C=C/c3ccc(N(C)C)cc3)cc2/C=C/c2ccc(N(C)C)cc2)cc1`, the IC50 came out at 88.05 µg/mL (≈ 190 µM) in [1], 79.59 µg/mL (≈ 171 µM) in [2] and 751.12 µg/mL (≈ 1620 µM) in series [3]. Also, the result in the series with Escherichia coli [4] was Active. The outcome in the series with Staphylococcus aureus [6] was inactive.

For the molecule `O=C([O-])Cc1ccccc1Nc1c(Cl)cccc1Cl.[Na+]` [DICLOFENAC SODIUM], the IC50 in series [3] is 52.95 µg/mL.
